Assay results: patent publication US8101647B2, “Spiro-oxindole compounds and their use as therapeutic agents” (Xenon Pharmaceuticals Inc., priority 2008, dated 2012)

Key:
CYP3A4 = biological target: T1, CYP3A4 (Homo sapiens, UniProt P08684); assay: Cytochrome P450 (CYP450) inhibition assay, fluorescence-based; format: in vitro ADME; conditions: recombinant CYP3A4 (P450 Baculosomes), probe Vivid substrate (fluorogenic)
T1 construct: purchased Invitrogen Corporation (Vivid CYP450 Screening Kit)

sodium channel = assay: Guanidine influx assay; format: cell-based, human or rat; conditions: known cell line that expresses a sodium channel; read-out: IC50 Activity Level
Text: This example describes an in vitro assay for testing and profiling test agents against human or rat sodium channels stably expressed in cells of either an endogenous or recombinant origin. The assay is also useful for determining the IC50 of a sodium channel blocking compound. The assay is based on the guanidine flux assay described by Reddy, N. L., et al., J. Med. Chem. (1998), 41(17):3298-302.
The guanidine influx assay is a radiotracer flux assay used to determine ion flux activity of sodium channels in a high-throughput microplate-based format. The assay uses ^14C-guanidine hydrochloride in combination with various known sodium channel modulators, to assay the potency of test agents. Potency is determined by an IC50 calculation. Selectivity is determined by comparing potency of the compound for the channel of interest to its potency against other sodium channels (also called ‘selectivity profiling’).
Each of the test agents is assayed against cells that express the channels of interest. Voltage gated sodium channels are either TTX sensitive or insensitive. This property is useful when evaluating the activities of a channel of interest when it resides in a mixed population with other sodium channels. The following Table 1 summarizes cell lines useful in screening for a certain channel activity in the presence or absence of TTX.
It is also possible to employ recombinant cells expressing these sodium channels. Cloning and propagation of recombinant cells are known to those skilled in the art (see, for example, Klugbauer, N, et al., EMBO J. (1995), 14(6):1084-90; and Lossin, C., et al., Neuron (2002), 34, pp. 877-884).
Cells expressing the channel of interest are grown according to the supplier or in the case of a recombinant cell in the presence of selective growth media such as G418 (Gibco/Invitrogen). The cells are disassociated from the culture dishes with an enzymatic solution (1×) Trypsin/EDTA (Gibco/Invitrogen) and analyzed for density and viability using haemocytometer (Neubauer). Disassociated cells are washed and resuspended in their culture media then plated into Scintiplates (Beckman Coulter Inc.) (approximately 100,000 cells/well) and incubated at 37° C./5% CO2. for 20-24 hours. After an extensive wash with Low sodium HEPES-buffered saline solution (LNHBSS) (150 mM Choline Chloride, […] (Sigma), 1 mM Calcium Chloride, 5 mM Potassium Chloride, 1 mM Magnesium Chloride, 10 mM Glucose) agents diluted with LNHBSS are added to each well. (Varying concentrations of test agent may be used). The activation/radiolabel mixture contains aconitine (Sigma) to increase the percentage of time that the sodium channels are open, and ^14C-guanidine hydrochloride (ARC) to measure flux through the voltage-gated sodium channels.
After loading the cells with test agent and activation/radiolabel mixture, the Scintiplates are incubated at ambient temperature. Following the incubation, the Scintplates are extensively washed with LNHBSS supplemented with guanidine (Sigma). The Scintiplates are dried and then counted using a Wallac MicroBeta TriLux (Perkin-Elmer Life Sciences). The ability of the test agent to block sodium channel activity is determined by comparing the amount of ^14C-guanidine present inside the cells expressing the different sodium channels.
The IC50 value of a test agent for a specific sodium channel may be determined using the above general method. […] Typically the mid-point concentration of test agent is set at 1 μM, and sequential concentrations of half dilutions greater or smaller are applied (e.g. 0.5 μM; 5 μM and 0.25 μM; 10 μM and 0.125 μM; 20 μM etc.). The IC50 curve is calculated using the 4 Parameter Logistic Model or Sigmoidal Dose-Response Model formula (fit=(A+((B−A)/(1+((C/x)^D)))).
The fold selectivity, factor of selectivity or multiple of selectivity, is calculated by dividing the IC50 value of the test sodium channel by the reference sodium channel, for example, NaV1.5. […]

T1 sequence (P08684 whole entry): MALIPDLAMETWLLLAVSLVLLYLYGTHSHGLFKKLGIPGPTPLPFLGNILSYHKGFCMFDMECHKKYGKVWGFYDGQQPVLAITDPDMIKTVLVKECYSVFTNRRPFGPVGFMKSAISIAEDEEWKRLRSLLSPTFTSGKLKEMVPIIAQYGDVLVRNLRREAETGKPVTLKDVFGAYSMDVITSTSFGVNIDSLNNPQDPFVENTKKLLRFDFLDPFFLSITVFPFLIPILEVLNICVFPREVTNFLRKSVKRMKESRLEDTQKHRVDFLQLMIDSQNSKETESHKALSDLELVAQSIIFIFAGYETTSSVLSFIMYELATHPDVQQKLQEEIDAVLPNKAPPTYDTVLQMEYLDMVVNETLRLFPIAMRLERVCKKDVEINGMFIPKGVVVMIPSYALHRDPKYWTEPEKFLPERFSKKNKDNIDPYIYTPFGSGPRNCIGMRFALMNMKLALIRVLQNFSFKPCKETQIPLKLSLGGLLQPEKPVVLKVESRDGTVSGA

Q: For `O=C1N(C[C@H]2CCCO2)c2ccccc2C12COc1cc3c(cc12)C(=NO)CO3` (stereo partly drawn) [Example 24, 1′-[(2R)-tetrahydrofuran-2-ylmethyl]spiro[benzo[1,2-b:5,4-b′]difuran-3,3′-indole]-2′,5(1′H,6H)-dione 5-oxime], which inhibition at 10 µM (CYP3A4) is on record?
A: > 50%

Q: What about the melting point of the same compound?
A: 82 to 100 °C

Q: And the IC50 (sodium channel)?
A: 1000 to 10000 nM

Q: What does the source list for `O=C(O)COc1cccc(CN2C(=O)C3(COc4cc5c(cc43)CCO5)c3ccccc32)c1` (stereo not drawn) [Example 15, {3-[(2′-oxo-5,6-dihydrospiro[benzo[1,2-b:5,4-b′]difuran-3,3′-indol]-1′(2′H)-yl)methyl]phenoxy}acetic acid]?
A: inhibition at 10 µM (CYP3A4): < 50%; melting point: 95 to 96 °C; IC50 (sodium channel): 1000 to 10000 nM

Q: With `CC(C)[Si](Oc1ccc2c(c1)OCC21C(=O)N(C[C@H]2CCCO2)c2ccccc21)(C(C)C)C(C)C` (stereo partly drawn) [Example 4, 1′-[(2R)-tetrahydrofuran-2-ylmethyl]-6-{[tris(1-methylethyl)silyl]oxy}spiro[1-benzofuran-3,3′-indol]-2′(1′H)-one] as the compound, how does the IC50 (sodium channel) read?
A: 100 to 1000 nM

Q: For `Cl.O=C1N(Cc2ccc(N[C@@H]3CCNC3)cc2)c2ccccc2C12COc1cc3c(cc12)OCO3` (stereo partly drawn), which melting point is on record?
A: 190 to 195 °C

Q: With `CC(C)(C)OC(=O)N1CC[C@@H](Nc2ccc(CN3C(=O)C4(COc5cc6c(cc54)OCO6)c4ccccc43)cc2)C1` (stereo partly drawn) [Example 5, tert-butyl (3R)-3-({4-[(2′-oxospiro[furo[2,3-f][1,3]benzodioxole-7,3′-indol]-1′(2′H)-yl)methyl]phenyl}-amino)pyrrolidine-1-carboxylate] as the compound, how does the melting point read?
A: 115 to 118 °C

Q: With `O=C(O)COc1ccc(CN2C(=O)C3(COc4cc5c(cc43)CCO5)c3ccccc32)cc1` (stereo not drawn) [Example 15.1, {4-[(2′-oxo-5,6-dihydrospiro[benzo[1,2-b:5,4-b′]difuran-3,3′-indol]-1′(2′H)-yl)methyl]phenoxy}acetic acid] as the compound, how does the inhibition at 10 µM (CYP3A4) read?
A: < 50%

Q: And the melting point?
A: 265 to 266 °C

Q: Which inhibition at 10 µM (CYP3A4) does the source give for `NC(=O)COc1cccc(CN2C(=O)C3(COc4cc5c(cc43)CCO5)c3ccccc32)c1` (stereo not drawn) [Example 13, 2-{3-[(2-oxo-5,6-dihydrospiro[benzo[1,2-b:5,4-b]difuran-3,3-indol]-1(2H)-yl)methyl]phenoxy}acetamide] here?
A: > 50%

Q: And the melting point?
A: 109 to 111 °C

Q: And the IC50 (sodium channel)?
A: 1 to 100 nM

Q: Which melting point does the source give for `CN(C)CCOc1ccc2c(c1)OCC21C(=O)Nc2ccccc21` (stereo not drawn) [Example 2, 6-[2-(dimethylamino)ethoxy]spiro[1-benzofuran-3,3′-indol]-2′(1′H)-one] here?
A: 95 to 97 °C

Q: And the IC50 (sodium channel)?
A: ≥ 10000 nM

Q: With `NC(=O)COc1ccc(CN2C(=O)C3(COc4cc5c(cc43)CCO5)c3ccccc32)cc1` (stereo not drawn) [Example 13.1, 2-{4-[(2′-oxo-5,6-dihydrospiro[benzo[1,2-b:5,4-b′]difuran-3,3′-indol]-1′(2′H)-yl)methyl]phenoxy}acetamide] as the compound, how does the inhibition at 10 µM (CYP3A4) read?
A: < 50%

Q: And the melting point?
A: 215 to 216 °C

Q: And the IC50 (sodium channel)?
A: 1 to 100 nM

Q: Which inhibition at 10 µM (CYP3A4) does the source give for `CCOC(=O)COc1ccc(CN2C(=O)C3(COc4cc5c(cc43)CCO5)c3ccccc32)cc1` (stereo not drawn) [Example 14.1, ethyl {4-[(2′-oxo-5,6-dihydrospiro[benzo[1,2-b:5,4-b′]difuran-3,3′-indol]-1′(2′H)-yl)methyl]phenoxy}acetate] here?
A: < 50%

Q: And the melting point?
A: 158 to 159 °C

Q: What about the IC50 (sodium channel) of the same compound?
A: 1 to 100 nM

Q: What does the source list for `CNC(=O)COc1cccc(CN2C(=O)C3(COc4cc5c(cc43)CCO5)c3ccccc32)c1` (stereo not drawn) [Example 16, N-methyl-2-{3-[(2′-oxo-5,6-dihydrospiro[benzo[1,2-b:5,4-b′]difuran-3,3′-indol]-1′(2′H)-yl)methyl]phenoxy}acetamide]?
A: inhibition at 10 µM (CYP3A4): > 50%; melting point: 175 to 176 °C; IC50 (sodium channel): 1 to 100 nM

Q: With `CC(N)COc1ccc2c(c1)OCC21C(=O)N(C[C@H]2CCCO2)c2ccccc21.Cl` (stereo partly drawn) [Example 20, 6-(2-aminopropoxy)-1′-[(2R)-tetrahydrofuran-2-ylmethyl]spiro[1-benzofuran-3,3′-indol]-2′(1′H)-one hydrochloride] as the compound, how does the inhibition at 10 µM (CYP3A4) read?
A: < 50%

Q: And the melting point?
A: 120 to 130 °C

Q: What about the IC50 (sodium channel) of the same compound?
A: 1000 to 10000 nM

Q: For `CS(=O)(=O)N(c1ccc2c(c1)OCC21C(=O)N(C[C@H]2CCCO2)c2ccccc21)S(C)(=O)=O` (stereo partly drawn) [Example 18, N-(methylsulfonyl)-N-{2′-oxo-1′-[(2R)-tetrahydrofuran-2-ylmethyl]-1′,2′-dihydrospiro[1-benzofuran-3,3′-indol]-6-yl}methanesulfonamide], which inhibition at 10 µM (CYP3A4) is on record?
A: < 50%

Q: What about the IC50 (sodium channel) of the same compound?
A: 1000 to 10000 nM

Q: What does the source list for `CN(C)CCOc1ccc2c(c1)OCC21C(=O)N(C[C@H]2CCCO2)c2ccccc21` (stereo partly drawn) [Example 21, 6-[2-(dimethylamino)ethoxy]-1′-[(2R)-tetrahydrofuran-2-ylmethyl]spiro[1-benzofuran-3,3′-indol]-2′(1′H)-one]?
A: inhibition at 10 µM (CYP3A4): < 50%; IC50 (sodium channel): 1000 to 10000 nM

Q: With `CC(=O)N1CCC[C@H]1CN1C(=O)C2(COc3cc4c(cc32)CCO4)c2ccccc21` (stereo partly drawn) [Example 8, 1′-{[(2S)-1-acetylpyrrolidin-2-yl]methyl}-5,6-dihydrospiro[benzo[1,2-b:5,4-b′]difuran-3,3′-indol]-2′(1′H)-one] as the compound, how does the inhibition at 10 µM (CYP3A4) read?
A: > 50%

Q: And the melting point?
A: 103 to 108 °C

Q: What about the IC50 (sodium channel) of the same compound?
A: 1000 to 10000 nM

Q: With `COCCOc1ccc(CN2C(=O)C3(COc4cc5c(cc43)OCCO5)c3ccccc32)cc1` (stereo not drawn) [Example 13.3, 1′-[4-(2-methoxyethoxy)benzyl]-2,3-dihydrospiro[furo[2,3-g][1,4]benzodioxine-8,3′-indol]-2′(1′H)-one] as the compound, how does the inhibition at 10 µM (CYP3A4) read?
A: > 50%

Q: And the melting point?
A: 124 to 125 °C

Q: What about the IC50 (sodium channel) of the same compound?
A: 1 to 100 nM

Q: With `C[S+]([O-])c1ccc(CN2C(=O)C3(COc4cc5c(cc43)CCO5)c3ccccc32)cc1` (stereo not drawn) [Example 17, 1′-[4-(methylsulfinyl)benzyl]-5,6-dihydrospiro[benzo[1,2-b:5,4-b′]difuran-3,3′-indol]-2′(1′H)-one] as the compound, how does the inhibition at 10 µM (CYP3A4) read?
A: > 50%

Q: What about the IC50 (sodium channel) of the same compound?
A: 100 to 1000 nM

Q: Which results are given for `N/C(CN1C(=O)C2(COc3cc4c(cc32)OCO4)c2c(Cl)cccc21)=N\OC(=O)C1CC1` (stereo not drawn) [Example 11, 2-(4′-chloro-2′-oxospiro[furo[2,3-f][1,3]benzodioxole-7,3′-indol]-1′(2′H)-yl)-N′-[(cyclopropylcarbonyl)oxy]ethanimidamide]?
A: inhibition at 10 µM (CYP3A4): > 50%; IC50 (sodium channel): 100 to 1000 nM

Q: What does the source list for `N/C(CN1C(=O)C2(COc3cc4c(cc32)OCO4)c2ccccc21)=N\O` (stereo not drawn) [Example 25, (1Z)-N′-hydroxy-2-(2′-oxospiro[furo[2,3-f][1,3]benzodioxole-7,3′-indol]-1′(2′H)-yl)ethanimidamide]?
A: inhibition at 10 µM (CYP3A4): > 50%; melting point: 235 to 238 °C; IC50 (sodium channel): 100 to 1000 nM

Q: With `CCOC(=O)COc1ccc(CN2C(=O)C3(COc4cc5c(cc43)OCCO5)c3ccccc32)cc1` (stereo not drawn) [Example 14.2, ethyl {4-[(2′-oxo-2,3-dihydrospiro[furo[2,3-g][1,4]benzodioxine-8,3′-indol]-1′(2′H)-yl)methyl]phenoxy}acetate] as the compound, how does the inhibition at 10 µM (CYP3A4) read?
A: < 50%

Q: What about the melting point of the same compound?
A: 59 to 61 °C

Q: And the IC50 (sodium channel)?
A: 1 to 100 nM

Q: For `O=C1N(Cc2ccc(N[C@@H]3CCNC3)cc2)c2ccccc2C12COc1cc3c(cc12)OCO3` (stereo partly drawn) [Example 6, 1′-{4-[(3R)-pyrrolidin-3-ylamino]benzyl}spiro[furo[2,3-f][1,3]benzodioxole-7,3′-indol]-2′(1′H)-one], which melting point is on record?
A: 118 to 121 °C

Q: For `O=C(O)COc1ccc(CN2C(=O)C3(COc4cc5c(cc43)OCCO5)c3ccccc32)cc1` (stereo not drawn) [Example 15.2, {4-[(2′-oxo-2,3-dihydrospiro[furo[2,3-g][1,4]benzodioxine-8,3′-indol]-1′(2′H)-yl)methyl]phenoxy}acetic acid], which inhibition at 10 µM (CYP3A4) is on record?
A: < 50%

Q: What about the melting point of the same compound?
A: 223 to 224 °C
